Patent US20250066826A1, “ARTIFICIAL SYNTHESIS METHOD FOR MALONYL-COENZYME A (COA) AND USE THEREOF” (SHANGHAI JIAO TONG UNIVERSITY, priority 2023, published 2025)
Like-named read-outs stand apart in the source and are kept apart here.

Columns and labels:
artificial NCM pathway = experiment: Effect of inhibitors of natural synthesis pathways on the NCM in-vitro reaction system; format: biochemical
Experimental: It can be seen that the BauA has the best effect (FIG. 4A).
Natural PDH-ACC pathways are strictly regulated by many factors, such as high levels of intracellular ATP severely reducing the activity of PDH. When ADP/ATP=1, the activity of PDH is only 10% of that when ADP/ATP=20 (Hansford R G et al., 1976). Acetyl-CoA is also an inhibitor of PDH. When acetyl-CoA reaches 2 mM, the activity of PDH decreases by 70%. Long-chain fatty acyl-CoA, such as palmitoyl-CoA, is an inhibitor of ACC. […] palmitoyl-CoA can cause an 80% decrease in ACC activity. In the above NCM in-vitro reaction system, ATP and ADP (ATP+ADP=3.75 mM, ADP/ATP was +00, 10, 1, and 0.1, respectively) (FIG. 6A), acetyl-CoA (0, 0.5, 1, and 2 mM) (FIG. 6B), and palmitoyl-CoA ([…]) (FIG. 6C) were added, respectively.

PDH = conditions: cited from earlier work
[1] = test system: E. coli MG1655 (DE3), pCDF-ACC (strain N); format: cell-based; conditions: ACC overexpressed strain; MOPS medium with 200 mM succinic acid, 10 mM triacetic acid lactone, 300 mM NaCl or 480 mM sucrose
Experimental: (§1) Seed culture: Monoclones of the MG1655 (DE3), pCDF-bauA-mcrC (strain L), monoclones of the MG1655 (DE3), pCDF-duet (strain M) and monoclones of the MG1655 (DE3), pCDF-ACC (strain N) were selected respectively to be inoculated into a 15 mL test tube containing 5 mL of an MOPS medium, the medium containing spectinomycin (a final concentration of 50 μg/mL). Culture was carried out at 220 r and 37° C. until the OD550 is around 1.5 to 1.8 to be used as a seed solution.
(§2) Medium used for tolerance testing: IPTG (a final concentration of 0.1 mM) and spectinomycin (a final concentration of 50 μg/mL) were added into an MOPS medium (containing […] glucose); then, inhibitors were added, and the selected inhibitors and final concentrations thereof were formic acid (100 mM), acetic acid (50 mM), caproic acid (10 mM), lactic acid (500 mM), succinic acid (200 mM), glucose (100 μg/L), sucrose (480 mM), octanoic acid (10 mM), citric acid (200 mM), vanillic acid (3 μg/L), and triacetic acid lactone (TAL, 1.25 μg/L).
(§3) The seed solution was inoculated at a ratio of initial OD550=0.1 into a medium for tolerance test. After inoculation was completed, shaking for even mixing was carried out. 200 μL of the same was pipetted to a 96-well plate. By using a continuous kinetic assay method, OD550 was determined every 10 minutes with a microplate reader (Biotek), to determine the growth curve of the strain. The specific growth rate […] can be obtained by calculation of the exponential growth phase OD550T, cultivation time T, and initial OD550O.

[2] = test system: E. coli MG1655 (DE3), pCDF-bauA-mcrC (strain L); format: cell-based; conditions: for biomass (OD550): NCM pathway overexpressed strain, MOPS medium with 200 mM succinic acid, 10 mM triacetic acid lactone, 300 mM NaCl or 480 mM sucrose; for increase of biomass of NCM strain compared to the reference strain / increase of biomass of NCM strain compared to the ACC overexpressed strain: same stressor concentrations as OD550 values
Experimental: as §1, §2, §3

[3] = test system: E. coli MG1655 (DE3), pCDF-duet (strain M); experiment: Tolerance test, growth (OD550) of reference strain; format: cell-based; conditions: MOPS medium with 200 mM succinic acid, 10 mM triacetic acid lactone, 300 mM NaCl or 480 mM sucrose
Experimental: as §1, §2, §3

| Structure (SMILES) | biomass (OD550) [1] | biomass (OD550) [2] | increase of biomass of NCM strain compared to the reference strain [2] [%] | biomass (OD550) [3] | increase of biomass of NCM strain compared to the ACC overexpressed strain [2] [%] | other results |
| --- | --- | --- | --- | --- | --- | --- |
| CC(=O)SCCNC(=O)CCNC(=O)[C@H](O)C(C)(C)COP(=O)(O)OP(=O)(O)OC[C@H]1O[C@@H](n2cnc3c(N)ncnc32)[C@H](O)[C@@H]1OP(=O)(O)O [acetyl-CoA] | – | – | – | – | – | inhibitory effect on the artificial NCM pathway (artificial NCM pathway; acetyl-CoA 0, 0.5, 1 and 2 mM): no inhibitory effect; decrease in PDH activity (PDH; 2 mM acetyl-CoA): 70% |
| CCCCCCCCCCCCCCCC(=O)SCCNC(=O)CCNC(=O)[C@H](O)C(C)(C)COP(=O)(O)OP(=O)(O)OC[C@H]1O[C@@H](n2cnc3c(N)ncnc32)[C@H](O)[C@@H]1OP(=O)(O)O [palmitoyl-CoA] | – | – | – | – | – | inhibitory effect on the artificial NCM pathway (artificial NCM pathway; palmitoyl-CoA 0, 0.24, 0.48, 0.96, 2.4 and 24 M): no inhibitory effect |
| O=C(O)CCC(=O)O [succinic acid] | 0.20 | 0.60 | 100 | 0.30 | – | – |
| Nc1ncnc2c1ncn2[C@@H]1O[C@H](COP(=O)(O)OP(=O)(O)OP(=O)(O)O)[C@@H](O)[C@H]1O [ATP] | – | – | – | – | – | inhibitory effect on the artificial NCM pathway (artificial NCM pathway; ATP+ADP=3.75 mM, ADP/ATP +00, 10, 1 and 0.1): no inhibitory effect; decrease in PDH activity (PDH; ADP/ATP equal to 1): 90%; activity of PDH relative to that when ADP/ATP=20 (PDH; ADP/ATP=1): 10% |
| Cc1cc(O)cc(=O)o1 [triacetic acid lactone] | 0.29 | 0.81 | 30 | 0.62 | 180 | – |
| [Cl-].[Na+] [NaCl] | 0.24 | 0.76 | 29 | 0.59 | 214 | – |
| OC[C@H]1O[C@@](CO)(O[C@H]2O[C@H](CO)[C@@H](O)[C@H](O)[C@H]2O)[C@@H](O)[C@@H]1O [sucrose] | 0.23 | 0.96 | 26 | 0.77 | 320 | – |
